Laboratory results as given in patent publication US10537103B2, “Antibacterial composition containing an isomer mixture of monosaccharide alkyl monoacetals or monoethers” (TEREOS STARCH & SWEETENERS BELGIUM, priority 2014, dated 2020).
Values after ≈ are worked out from the molar mass of the structure shown. Where two headings read alike, the source gives them in different places.

What was measured:
[1] = tested on: Staphylococcus S. aureus strains (ATCC, methicillin-resistant, daptomycin-resistant); assay: MIC on a wider panel of strains (Example 10), microdilution; format: cell-based
Procedure: (§1) The cultures studied, freshly isolated (after incubation on a blood agar at 37° C. for 18 h), are taken up in sterile water (10 mL) until obtaining a 0.5 McFarland (Mc) suspension i.e. 1 to 1 to 2×10^8 CFU (bacteria)/cm^3. The bacterial suspension was then diluted to obtain a final concentration of 1×10^6 CFU/cm^3.
(§2) Each well contains an identical quantity of Mueller-Hinton medium (a rich medium for bacterial culture) and bacteria with final [concentration of] 0.5×10^6 CFU/cm^3.
(§3) The test compounds of interest are solubilized in ethanol or DMSO at 25 mg/mL before being diluted to different concentrations two by two. On the multiwell plate, a first series has been planned comprising the culture medium without the test compound of interest. It corresponds to the growth control (control well). These controls serve as reference for comparing bacterial growth with that of the subsequent wells comprising different concentrations of the test compound of interest. The second series of wells comprises the mother solution for the test compound of interest for a concentration in the wells of 256 mg/L (7 mM). Each series of wells was diluted two by two until the last series for a final concentration of 0.25 mg/L (0.0007 mM). Each concentration is duplicated in the same plate. The plate is incubated for 18 h at 37° C. […] If there is antibacterial activity, the bacterial growth is inhibited, which means that no turbidity or bacterial residue is present.
(§4) The minimum inhibitory concentrations (MIC) are tested on Gram-positive bacterial strains according to the recommendations of the “Clinical Laboratory Standards Institute” (Clinical-Laboratory-Standards-Institute, 6th ed. Approved standard M100-S17. CLSI, Wayne, Pa., 2007). The clinical strains have been isolated in the Hospice de Lyon.
Staphylococci S. aureus: ATCC® 29213™, ATCC 25923,
as §1, with “At 10^8” for “1 to 1 to 2×10^8”, “10^6” for “1×10^6”

[2] = tested on: E. faecium strains (CIP 103510, Van A, 1401); assay: as above; format: cell-based; settings: Enterococcus faecium, CIP103510
Procedure: as §1, §2, §3, §4
Enterococci: E. faecium (CIP 103510), clinical strains of Enterococci E. faecium: Van A 0151850763 (hereinafter Van A); strain 015 205731401 (hereinafter 1401),
as §1, with “At 10^8” for “1 to 1 to 2×10^8”, “10^6” for “1×10^6”

[3] = tested on: L. monocytogenes strains (CIP 103575, LM1, LM2, LM3); assay: as above; format: cell-based; settings: Listeria monocytogenes, CIP103575
Procedure: The cultures studied, freshly isolated (after incubation on a blood agar at 37° C. for 18 h), are taken up in sterile water (10 mL) until obtaining a 0.5 McFarland (Mc) suspension i.e. 1 to 1 to 2×10^8 CFU (bacteria)/cm^3. The bacterial suspension was then diluted to obtain a final concentration of 1×10^6 CFU/cm^3. Each well contains an identical quantity of Mueller-Hinton medium (a rich medium for bacterial culture) and bacteria with final [concentration of] 0.5×10^6 CFU/cm^3. The test compounds of interest are solubilized in ethanol or DMSO at 25 mg/mL before being diluted to different concentrations two by two. On the multiwell plate, a first series has been planned comprising the culture medium without the test compound of interest. It corresponds to the growth control (control well). These controls serve as reference for comparing bacterial growth with that of the subsequent wells comprising different concentrations of the test compound of interest. The second series of wells comprises the mother solution for the test compound of interest for a concentration in the wells of 256 mg/L (7 mM). Each series of wells was diluted two by two until the last series for a final concentration of 0.25 mg/L (0.0007 mM). Each concentration is duplicated in the same plate. The plate is incubated for 18 h at 37° C. […] If there is antibacterial activity, the bacterial growth is inhibited, which means that no turbidity or bacterial residue is present. The minimum inhibitory concentrations (MIC) are tested on Gram-positive bacterial strains according to the recommendations of the “Clinical Laboratory Standards Institute” (Clinical-Laboratory-Standards-Institute, 6th ed. Approved standard M100-S17. CLSI, Wayne, Pa., 2007). The clinical strains have been isolated in the Hospice de Lyon. Listeria: L. monocytogenes (CIP 103575), clinical strain isolated from hemoculture (015189074801, LM1), a strain isolated from cerebrospinal liquid (015170199001, LM2), clinical strains isolated from hemoculture (015181840701, LM3). The cultures studied, freshly isolated (after incubation on a blood agar at 37° C. for 18 h), are taken up in sterile water (10 mL) until obtaining a 0.5 McFarland (Mc) suspension i.e. At 10^8 CFU (bacteria)/cm^3. The bacterial suspension was then diluted to obtain a final concentration of 10^6 CFU/cm^3.

[4] = methicillin-resistant, HT 2002-0417, read-out: MIC S. aureus HT 2002-0417
[5] = methicillin-resistant, HT 2006-1004, read-out: MIC S. aureus HT 2006-1004
[6] = methicillin-resistant, LY 199-0053, read-out: MIC S. aureus LY 199-0053
[7] = methicillin-resistant, Lac-Deleo USA 300, read-out: MIC S. aureus USA 300
[8] = methicillin-resistant, MU 3, read-out: MIC S. aureus MU 3
[9] = strain ATCC 25923, read-out: MIC S. aureus ATCC 25923
[10] = strain ATCC 29213, read-out: MIC S. aureus ATCC 29213
[11] = E. faecium CIP 103510, read-out: MIC Enterococcus CIP 103510
[12] = E. faecium clinical strain Van A 0151850763, read-out: MIC Enterococcus Van A
[13] = L. monocytogenes CIP 103575, read-out: MIC Listeria CIP 103575

MIC ([1]; Staphylococcus, all strains of Table 6, read-out: MIC, staphylococcus strains tested) [µg/mL]	MIC [1, 4] [µg/mL]	MIC ([1]; methicillin-resistant, HT 2004-0012, read-out: MIC S. aureus HT 2004-0012) [µg/mL]	MIC [1, 5] [µg/mL]	MIC [1, 6] [µg/mL]	MIC [1, 7] [µg/mL]	MIC [1, 8] [µg/mL]	MIC [1, 9] [µg/mL]	MIC [1, 10] [µg/mL]	MIC [2, 11] [µg/mL]	MIC [2, 12] [µg/mL]	MIC [3, 13] [µg/mL]	melting point [°C]	MIC ([1]; daptomycin-resistant, ST 2014 1288, read-out: MIC S. aureus ST 2014 1288) [µg/mL]	MIC ([1]; daptomycin-resistant, ST 2015-0188, read-out: MIC S. aureus ST 2015 0188) [µg/mL]	MIC ([1]; daptomycin-resistant, ST 2015-0989, read-out: MIC S. aureus ST 2015 0989) [µg/mL]	MIC ([2]; E. faecium clinical strain 015 205731401, read-out: MIC Enterococcus 1401) [µg/mL]	MIC ([3]; clinical strain from hemoculture 015181840701, read-out: MIC Listeria LM3) [µg/mL]	MIC ([3]; clinical strain from hemoculture 015189074801, read-out: MIC Listeria LM1) [µg/mL]	MIC ([3]; strain from cerebrospinal liquid 015170199001, read-out: MIC Listeria LM2) [µg/mL]	SMILES
> 256	256 (≈ 710 µM)	256 (≈ 710 µM)	256 (≈ 710 µM)	256 (≈ 710 µM)	256 (≈ 710 µM)	256 (≈ 710 µM)	256 (≈ 710 µM)	256 (≈ 710 µM)	256 (≈ 710 µM)	256 (≈ 710 µM)	64 (≈ 178 µM)	69	–	–	–	–	–	–	–	CCCCCCCCCCCC1OCC2O[C@H](OC)C(O)C(O)[C@@H]2O1 (stereo partly drawn) [Compound 1e, Methyl 4,6-O-Dodecylidene α-D-glucopyranoside]
–	128 (≈ 355 µM)	–	64 (≈ 178 µM)	64 (≈ 178 µM)	64 (≈ 178 µM)	64 (≈ 178 µM)	64 (≈ 178 µM)	64 (≈ 178 µM)	32 (≈ 88.8 µM)	32 (≈ 88.8 µM)	16 (≈ 44.4 µM)	84	64 (≈ 178 µM)	64 (≈ 178 µM)	64 (≈ 178 µM)	16 (≈ 44.4 µM)	64 (≈ 178 µM)	16 (≈ 44.4 µM)	16 (≈ 44.4 µM)	CCCCCCCCCCCC1OCC2O[C@@H](OC)C(O)C(O)[C@@H]2O1 (stereo partly drawn) [Compound 1f, Methyl 4,6-O-Dodecylidene β-D-glucopyranoside]
